Results from patent US20230286973A1, “PROTEIN SECRETION INHIBITORS” (KEZAR LIFE SCIENCES, priority 2020, published 2023).

How the values were obtained:
[1] = test system: PD1-ss+10aa/Gaussia Luciferase; assay: Dox-Induced PD1-ss-Gluc Assay; assay type: cell-based; conditions: 24 hr Dox induction; 293FRT/TO cells; mean; read-out: 24 hr Dox Inducible PD1ssGluc 293FRT/TO: Mean IC50
Summary of the method: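 Gaussia luciferase fused downstream of the PD1 signal peptide plus 10 residues was expressed on doxycycline induction in stably transfected Flp-In 293 T-REx cells. Compounds were added with doxycycline and incubated at 37 °C, 5% CO2.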

[2] = test system: TNFα-FL/Gaussia Luciferase; assay: Dox Induced TNFα-FL-Gluc Assay; assay type: cell-based; conditions: for IC50: 24 hr Dox induction, 293FRT/TO cells, mean, read-out: 24 hr Dox Inducible TNFaFLGluc 293FRT/TO: Mean IC50; for 24 hr Dox Inducible TNFaFLGluc 293FRT/TO: TNF/PD1: ratio of TNFaFLGluc IC50 to PD1ssGluc IC50, '<=>' given where both are I.A.
Summary of the method: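 Hygromycin/blasticidin-selected Flp-In 293 T-REx cells, TNFα-FL/Gaussia luciferase fusion under T-REx control; overnight plating, then compound in DMSO/media with doxycycline at 37 °C, 5% CO2; stereo-undefined structures tested as mixtures.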

[3] = test system: HER3-ss+4aa/Gaussia Luciferase; assay: Dox-Induced Her3-ss-Gluc Assay; assay type: cell-based; conditions: 24 hr Dox induction; 293FRT/TO cells; mean; read-out: 24 hr Dox Inducible Her3(ss + 4)Gluc 293FRT/TO: Mean IC50
Summary of the method: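 Doxycycline-inducible HER3 signal sequence+4aa/Gaussia luciferase construct, stably integrated in Flp-In 293 T-REx cells; compound dilutions applied with doxycycline at 37° C., 5% CO2.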

[4] = test system: IL-2-FL/Gaussia Luciferase; assay: Dox Induced IL2-FL-Gluc Assay; assay type: cell-based; conditions: for IC50: 24 hr Dox induction, 293FRT/TO cells, mean, read-out: 24 hr Dox Inducible IL2FLGluc 293FRT/TO: Mean IC50; for 24 hr Dox Inducible IL2FLGluc 293FRT/TO: IL2/PD1: ratio of IL2FLGluc IC50 to PD1ssGluc IC50, '<=>' given where both are I.A.
Summary of the method: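 A hygromycin- and blasticidin-resistant 293 T-REx clone carrying inducible IL-2–Gaussia luciferase (full-length IL-2, residues 1-153) serves as the cell system. After overnight plating, the cells get test compounds together with doxycycline in DMSO/media and are incubated at 37° C, 5% CO2.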

[5] = test system: multiple myeloma cell line NCI-H929; assay: H929 Cell Viability Assay; assay type: cell-based, human; conditions: Homo sapiens, NCI-H929, 48 h, NCI-H929 cells, Celltiter-Glo
Summary of the method: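 A 48-hour compound treatment of cells in 10% FBS RPMI medium was followed by luciferase-based viability quantification.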

[6] = test system: multiple myeloma cell line U266B1; assay: U266 Cell Viability Assay; assay type: cell-based, human; conditions: Homo sapiens, U-266, 48 h, U266B1 cells, Celltiter-Glo
Summary of the method: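 After growth in serum-supplemented RPMI 1640, cells received serially diluted compound in DMSO/media and were kept 48 hours before a CellTiter-Glo luminescence readout.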

[7] = Liver Microsome Stability Assay (rat); conditions: rat liver microsomes, with NADPH, 1.0 uM compound
Description: (§1) Stability of a compound was assessed in the presence of liver microsomes from various sources—mouse, rat, monkey and human liver microsomes. 1.0 uM compound, 0.4% DMSO in 0.1 M Potassium Phosphate with 1.0 mg/mL liver microsomes, were incubated at 37° C. with or without 1 mM NADPH. The samples were quenched at 0, and 30 minutes.

[8] = Liver Microsome Stability Assay (mouse); conditions: mouse liver microsomes, with NADPH, 1.0 uM compound
Description: as §1

[9] = Liver Microsome Stability Assay (human); conditions: human liver microsomes, with NADPH, 1.0 uM compound
Description: as §1

[10] = Liver Microsome Stability Assay (monkey); conditions: monkey liver microsomes, with NADPH, 1.0 uM compound
Description: as §1

| Compound | IC50 [1] [µM] | IC50 [2] [µM] | 24 hr Dox Inducible TNFaFLGluc 293FRT/TO: TNF/PD1 [2] | IC50 [3] [µM] | IC50 [4] [µM] | 24 hr Dox Inducible IL2FLGluc 293FRT/TO: IL2/PD1 [4] | EC50 [5] [µM] | EC50 [6] [µM] | Liver Microsome Stability (Multiple Species): Rat - % Remaining after 30 min w/NADPH [7] [%] | Liver Microsome Stability (Multiple Species): Mouse - % Remaining after 30 min w/NADPH [8] [%] | Liver Microsome Stability (Multiple Species): Human - % Remaining after 30 min w/NADPH [9] [%] | Liver Microsome Stability (Multiple Species): Monkey - % Remaining after 30 min w/NADPH [10] [%] |
| --- | --- | --- | --- | --- | --- | --- | --- | --- | --- | --- | --- | --- |
| Cc1ccc(S(=O)(=O)N2CCC[C@@H]2c2csc(NC(=O)c3cccn3Cc3ccncc3)n2)cc1 [Compound E14, (R)-1-(pyridin-4-ylmethyl)-N-(4-(1-tosylpyrrolidin-2-yl)thiazol-2-yl)-1H-pyrrole-2-carboxamide] | 4.24 | > 25 | >5.90 | 20.7 | 6.62 | 1.6 | > 25 | > 25 | 0.11 | 0.1 | 0.2 | 0.11 |
| CC(=O)N(C)C/C=C/c1csc(NC(=O)c2cccn2Cc2ccncc2)n1 [Compound E15, (E)-N-(4-(3-(N-methylacetamido)prop-1-en-1-yl)thiazol-2-yl)-1-(pyridin-4-ylmethyl)-1H-pyrrole-2-carboxamide] | > 25 | > 25 | – | > 25 | > 25 | 1 | > 25 | > 25 | 0.53 | 0.54 | 0.91 | 0.11 |
| O=C(Nc1nc(/C=C/[C@H]2CCCCN2)cs1)c1cccn1Cc1ccncc1 [Compound E16, (R,E)-N-(4-(2-(piperidin-2-yl)vinyl)thiazol-2-yl)-1-(pyridin-4-ylmethyl)-1H-pyrrole-2-carboxamide] | > 25 | > 25 | – | > 25 | > 25 | 1 | > 25 | > 25 | 51.2 | 37 | 1.56 | 0.72 |
| O=C(Nc1nc([C@H]2CCCN2)cs1)c1cccn1Cc1ccncc1 [Compound E17, (R)-1-(pyridin-4-ylmethyl)-N-(4-(pyrrolidin-2-yl)thiazol-2-yl)-1H-pyrrole-2-carboxamide] | > 25 | > 25 | – | > 25 | > 25 | 1 | > 25 | > 25 | 27.8 | 35.8 | 35.6 | 18.1 |
| O=C(Nc1nc(/C=C/[C@@H]2CCCCN2)cs1)c1cccn1Cc1ccncc1 [Compound E18, (S,E)-N-(4-(2-(piperidin-2-yl)vinyl)thiazol-2-yl)-1-(pyridin-4-ylmethyl)-1H-pyrrole-2-carboxamide] | > 5 | > 5 | – | > 5 | > 5 | 1 | > 25 | > 25 | 19.4 | 33.5 | 0.2 | 0.27 |
| O=C(Nc1nc([C@H]2CCCN2c2ccccc2)cs1)c1cccn1CCc1cccnc1 [Compound E21, (R)-N-(4-(1-phenylpyrrolidin-2-yl)thiazol-2-yl)-1-(2-(pyridin-3-yl)ethyl)-1H-pyrrole-2-carboxamide] | 6.48 | > 25 | >3.86 | > 25 | > 25 | >3.9 | 15.6 | 23.7 | 0.1 | 0.02 | 0.8 | 0.23 |
| O=C(Nc1nc([C@H]2CCCN2c2ccccc2)cs1)c1cccn1Cc1ccncc1Br [Compound E22, (R)-1-((3-bromopyridin-4-yl)methyl)-N-(4-(1-phenylpyrrolidin-2-yl)thiazol-2-yl)-1H-pyrrole-2-carboxamide] | 0.13 | 3.42 | 26.4 | 0.216 | 0.399 | 3.1 | 11.9 | > 25 | 0.79 | 1.4 | 11.5 | 0.58 |
| O=C(Nc1nc([C@H]2CCCN2c2ccccc2)cs1)c1cccn1Cc1ccnc(Br)c1 [Compound E23, (R)-1-((2-bromopyridin-4-yl)methyl)-N-(4-(1-phenylpyrrolidin-2-yl)thiazol-2-yl)-1H-pyrrole-2-carboxamide] | 0.338 | 11.4 | 33.8 | 0.629 | 0.773 | 2.3 | 18 | > 25 | 4.14 | 6.17 | 3 | 2.07 |
| CC(=O)NC/C=C/c1csc(NC(=O)c2cccn2Cc2ccncc2)n1 [Compound E30, (E)-N-(4-(3-acetamidoprop-1-en-1-yl)thiazol-2-yl)-1-(pyridin-4-ylmethyl)-1H-pyrrole-2-carboxamide] | > 25 | > 25 | – | > 25 | > 25 | 1 | > 25 | > 25 | 37.7 | 26.4 | 20.8 | 9.96 |
| CN(C)CCO[C@@H]1C[C@H](c2csc(NC(=O)c3cccn3Cc3ccncc3)n2)N(c2ccccc2)C1 [Compound E31] | 1.67 | > 25 | >15.0 | 9.14 | 9.02 | 5.4 | 8.9 | 7.85 | 21.2 | 38.3 | 2.06 | 0.25 |
